Values quoted from earlier work as cited in patent US7759312B2 (priority 2005, dated 2010).

How the values were obtained:
[1] = patients with acromegaly
GH = conditions: following a subcutaneous octreotide injection
IGF-1 = conditions: acromegaly

L-cysteinamide, D-phenylalanyl-L-cysteiny-L-phenylalanyl-D-tryptophyl-L-lysyl-L-threonyl-N-[2-hydroxy-1-(hydroxymethyl)propyl]-,cyclic(2→7)-disulfide; [Octreotide, L-cysteinamide, D-phenylalanyl-L-cysteiny-L-phenylalanyl-D-tryptophyl-L-lysyl-L-threonyl-N-[2-hydroxy-1-(hydroxymethyl)propyl]-,cyclic(2→7)-disulfide; [R—(R*,R*)]]
mean percent of the drug bound [1]: 41.2%
total body clearance [1]: 18 L/h
mean peak concentration ([1]; 100 mcg dose, subcutaneous): 2.8 ng/mL
time to mean peak concentration ([1]; 100 mcg dose, subcutaneous): 0.7 h
time to decrease of GH levels (GH): within two hours
patients with normalization of IGF-1 levels (IGF-1): up to 60%
